How the values were obtained:
[1] = tested on: phosphorylation of 4EBP1 and S6 ribosomal protein (mTOR downstream targets); assay: Western blotting of xenograft tumor and uninvolved muscle extracts for phosphorylation of mTOR downstream targets; assay type: in vivo, mouse; conditions: for phosphorylation of 4EBP1 and S6 (mTOR downstream targets): 20 mg/kg IP every 3 days for 30 days
Procedure: 2×10^6 cells in 0.2 mL total volume per mouse, from either Rh30 alveolar or RD embryonal cell lines, were injected orthotopically into the left hind leg gastrocnemius muscle of a SCID beige murine model. After 1 week, mice were assigned to control (n=8) or CCI-779 treatment groups (n=8). […] (FIG. 6C) CCI-779 was administered at 20 mg/kg/IP every 3 days for 30 days. Protein extracts from Rh30 and RD mouse xenograft tumors or uninvolved muscle were treated with CCI-779 or vehicle for 30 days and analyzed by Western blotting for S6 and 4EBP1 phosphorylation. […] 5. In vivo xenograft tumor model. Animal studies were performed in accordance with guidelines of the National Institutes of Health Animal Care and Use Committee. Female 4-6 week old beige-SCID mice were purchased from Charles River Laboratories (Wilmington, Mass.). Two million viable cells harvested from mid confluent cultures of either Rh30 alveolar or RD embryonal cells in 0.2 ml diluent (5% Tween-80, 5% polyethylene glycol-400 (Sigma, St. Louis, Mo.)) were injected orthotopically into the gastrocnemius muscle in the left hind leg, and after 1 week mice were randomly assigned to control (n=8) or CCI-779 treatment groups (n=8). Mice were treated IP every 3 days for 30 consecutive days with 20 mg/kg/IP of CCI-779 (Developmental Therapeutics Program, National Cancer Institute and Wyeth, Madison, N.J.) or vehicle alone. Tumor growth was measured every 3 days with calipers, and tumor volume was calculated by the formula V (mm^3)=a×b^2, where a is the longest tumor axis, and b is the shortest tumor axis. All mice were sacrificed by asphyxiation with CO2 and underwent necropsy for confirmation of tumor growth. Tumors were excised and snap frozen at -80° C. until analysis. […] Suppression of the mTOR pathway was monitored by measuring the phosphorylation of 4EBP1 and S6 ribosomal protein, which are well-established downstream targets of mTOR.

[2] = tested on: Rh30 alveolar cells xenograft; assay: Rh30 alveolar rhabdomyosarcoma orthotopic mouse xenograft, tumor growth; assay type: in vivo; conditions: SCID-beige mice, 20 mg/kg IP every 3 days for 30 days, vs vehicle, n=8, p=0.0002 (Student's t-test)
Procedure: (§1) 2×10^6 cells in 0.2 mL total volume per mouse, from either Rh30 alveolar or RD embryonal cell lines, were injected orthotopically into the left hind leg gastrocnemius muscle of a SCID beige murine model. After 1 week, mice were assigned to control (n=8) or CCI-779 treatment groups (n=8). […] (FIG. 6C) CCI-779 was administered at 20 mg/kg/IP every 3 days for 30 days. Protein extracts from Rh30 and RD mouse xenograft tumors or uninvolved muscle were treated with CCI-779 or vehicle for 30 days and analyzed by Western blotting for S6 and 4EBP1 phosphorylation. […] 5. In vivo xenograft tumor model. Animal studies were performed in accordance with guidelines of the National Institutes of Health Animal Care and Use Committee. Female 4-6 week old beige-SCID mice were purchased from Charles River Laboratories (Wilmington, Mass.). […] Tumor growth was measured every 3 days with calipers, and tumor volume was calculated by the formula V (mm^3)=a×b^2, where a is the longest tumor axis, and b is the shortest tumor axis. […] Suppression of the mTOR pathway was monitored by measuring the phosphorylation of 4EBP1 and S6 ribosomal protein, which are well-established downstream targets of mTOR.

[3] = tested on: RD embryonal cells xenograft; assay: RD embryonal rhabdomyosarcoma orthotopic mouse xenograft, tumor growth; assay type: in vivo; conditions: SCID-beige mice, 20 mg/kg IP every 3 days for 30 days, vs vehicle, n=8, p=0.00008 (Student's t-test)
Procedure: as §1

Structure (SMILES): CO[C@H]1C[C@@H]2CC[C@@H](C)[C@@](O)(O2)C(=O)C(=O)N2CCCC[C@H]2C(=O)O[C@H]([C@H](C)C[C@@H]2CC[C@@H](OC(=O)C(C)(CO)CO)[C@H](OC)C2)CC(=O)[C@H](C)/C=C(\C)[C@@H](O)[C@@H](OC)C(=O)[C@H](C)C[C@H](C)/C=C/C=C/C=C/1C [CCI-779, 40-[3-hydroxy(hydroxymethyl)methylpropanoate]-rapamycin]
- phosphorylation of 4EBP1 and S6 (mTOR downstream targets) ([1]; RD embryonal xenograft derived tumors): inhibited the phosphorylation of these downstream targets
- phosphorylation of 4EBP1 and S6 (mTOR downstream targets) ([1]; Rh30 alveolar xenograft derived tumors): inhibited the phosphorylation of these downstream targets
- phosphorylation of mTOR pathway substrates pS6 Ser235/236 and 4EBP1 Thr70 ([1]; time dependent, non-involved muscle and tumor tissue, compared to actin (FIG. 6A)): inhibited phosphorylation of mTOR pathway substrates
- tumor growth / tumor volume measured with calipers [2]: profoundly reduced the growth
- tumor growth / tumor volume measured with calipers ([2]; 20 mg/kg): less in the CCI-779 treatment group as compared to the vehicle alone
- tumor growth / tumor volume measured with calipers [3]: profoundly reduced the growth
- tumor growth / tumor volume measured with calipers ([3]; 20 mg/kg): less in the CCI-779 treatment group as compared to the vehicle alone
